Source: the supplement of paper PMC9663587

Experiments:
Test in all cases: GRmax, 72 h; higher = less effect;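 also: breast cell lines in 384-well plates, nine doses across a 10^4 range, Dye Drop imaging of viable cells vs DMSO and time-zero plates, GR 0 means no net growth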
SUM52PE = system: SUM52PE
MDAMB361 = system: MDAMB361
HCC1937 = system: HCC1937
SUM1315 = system: SUM1315
T47D = system: T47D
MCF12A = system: MCF12A
SUM149 = system: SUM149
MGH312 = system: MGH312
CAMA1 = system: CAMA1
MDAMB231 = system: MDAMB231
CAL51 = system: CAL51
EVSAT = system: EVSAT

SMILES	GRmax, 72 h (SUM52PE)	GRmax, 72 h (MDAMB361)	GRmax, 72 h (HCC1937)	GRmax, 72 h (SUM1315)	GRmax, 72 h (T47D)	GRmax, 72 h (MCF12A)	GRmax, 72 h (SUM149)	GRmax, 72 h (MGH312)	GRmax, 72 h (CAMA1)	GRmax, 72 h (MDAMB231)	GRmax, 72 h (CAL51)	GRmax, 72 h (EVSAT)
COc1cc2nccc(Oc3ccc(NC(=O)C4(C(=O)Nc5ccc(F)cc5)CC4)cc3)c2cc1OC [Cabozantinib] (max 10 µM)	0.0751 GR	0.662 GR	0.76 GR	0.11 GR	0.313 GR	0.96 GR	0.3 GR	0.332 GR	0.244 GR	0.0749 GR	0.306 GR	0.654 GR
COc1cc2c(Oc3ccc4[nH]c(C)cc4c3F)ncnc2cc1OCCCN1CCCC1 [Cediranib/AZD2171] (max 10 µM)	0.21 GR	-0.98 GR	0.278 GR	-0.228 GR	-0.64 GR	0.937 GR	0.0682 GR	-0.0842 GR	-0.292 GR	-0.362 GR	-0.103 GR	0.498 GR
Cc1cc(Nc2ncc(Cl)c(Nc3ccccc3S(=O)(=O)C(C)C)n2)c(OC(C)C)cc1C1CCNCC1 [Ceritinib/LDK378] (max 10 µM)	0.559 GR	-0.991 GR	-0.573 GR	-0.765 GR	-0.855 GR	0.172 GR	-0.438 GR	-0.156 GR	-0.699 GR	-0.333 GR	-0.476 GR	0.646 GR
Cc1nc(Nc2ncc(C(=O)Nc3c(C)cccc3Cl)s2)cc(N2CCN(CCO)CC2)n1 [Dasatinib] (max 10 µM)	-0.322 GR	0.0805 GR	0.0153 GR	-0.237 GR	0.496 GR	-0.0434 GR	-0.172 GR	0.0774 GR	0.679 GR	-0.126 GR	0.0983 GR	0.171 GR
COc1cccc2c1C(=O)c1c(O)c3c(c(O)c1C2=O)C[C@@](O)(C(=O)CO)C[C@@H]3O[C@H]1C[C@H](N)[C@H](O)[C@H](C)O1 [Doxorubicin] (max 3.162 µM)	-0.0432 GR	-0.722 GR	-0.166 GR	-0.0635 GR	-0.361 GR	-0.138 GR	-0.321 GR	-0.963 GR	-0.652 GR	-0.486 GR	-0.48 GR	-0.192 GR
COc1cc([C@@H]2c3cc4c(cc3[C@@H](O[C@@H]3O[C@@H]5CO[C@@H](C)O[C@H]5[C@H](O)[C@H]3O)[C@H]3COC(=O)[C@H]23)OCO4)cc(OC)c1O [Etoposide] (max 10 µM)	–	-0.517 GR	-0.118 GR	0.0416 GR	-0.186 GR	–	-0.196 GR	–	-0.448 GR	0.12 GR	-0.21 GR	–
CO[C@H]1C[C@@H]2CC[C@@H](C)[C@@](O)(O2)C(=O)C(=O)N2CCCC[C@H]2C(=O)O[C@H]([C@H](C)C[C@@H]2CC[C@@H](OCCO)[C@H](OC)C2)CC(=O)[C@H](C)/C=C(\C)[C@@H](O)[C@@H](OC)C(=O)[C@H](C)C[C@H](C)/C=C/C=C/C=C/1C [Everolimus] (max 10 µM)	0.553 GR	0.0574 GR	0.632 GR	0.402 GR	0.297 GR	0.571 GR	0.737 GR	0.148 GR	0.164 GR	0.711 GR	0.548 GR	0.354 GR
CCC(=O)Nc1ccc(C(=O)Nc2ccc(Nc3ncc4c(n3)N(C)c3ccc(C)cc3C(=O)N4C)cc2)cc1 [FMF-03-145-1]	0.0118 GR	0.286 GR	-0.0558 GR	-0.274 GR	-0.0373 GR	0.0223 GR	-0.101 GR	-0.365 GR	0.0253 GR	-0.0038 GR	0.0325 GR	-0.139 GR
CC[C@@]1(O)C(=O)OCc2c1cc1n(c2=O)Cc2cc3c(CN(C)C)c(O)ccc3nc2-1 [Topotecan] (max 10 µM)	–	-0.762 GR	-0.428 GR	-0.332 GR	-0.197 GR	–	-0.46 GR	–	-0.423 GR	-0.324 GR	-0.53 GR	–
